Data taken from patent US9732115B2, “3-(4′-substituted)-benzyl-ether derivatives of pregnenolone” (INSERM (Institut National de la Sante et de la Recherche …, priority 2012, dated 2017).

Test system: CHO cell line
Test: In vitro test of metabolization in CHO cells (steroids in culture medium by GC/MS)
Protocol: In Vitro Test of Metabolization
In this example, CHO cell line was used. These cells derived from the ovary have all the enzymes needed to metabolize pregnenolone in downstream steroids.
The content in CHO culture medium of allopregnanolone (ALLO), epiallopregnanolone (EPIALLO), pregnenolone (PREG), DHEA, and testosterone (TESTO) was measured by GC/MS.
Pregnenolone derivatives having C3 substituted with benzyloxy were tested using in vitro test in CHO cells.
Results expressed as percentage changes from CHO cells treated with Pregnenolone or as pg/ml (0=concentrations below the detection limit).

[1] = CHO culture medium, Pregnenolone 1 μM, 48 hours, GC/MS

Compound	metabolised in Pregnenolone (in words) (CHO cells, Table 2)	Allopregnanolone and Epiallopregnanolone in the culture medium (in words) (CHO cells, 1 μM, 48 hours)	ALLO (allopregnanolone) steroid levels [1]	DHEA steroid levels [1]	EPIALLO (epiallopregnanolone) steroid levels [1]	PREG (pregnenolone) steroid levels [1]	TESTO (testosterone) steroid levels [1]
COc1ccc(CO[C@H]2CC[C@@]3(C)C(=CCC4C3CC[C@@]3(C)C4CC[C@]3(C)C(C)=O)C2)cc1 (stereo partly drawn) [Compound 68, 3β-(p-methoxy- benzyloxy)-17α- methyl- pregnenolone]	not metabolised						
CC(=O)[C@H]1CC[C@H]2[C@@H]3CC=C4C[C@@H](O)CC[C@]4(C)[C@H]3CC[C@]12C [Pregnenolone]		significant increase	3529.99 pg/mL	0.00 pg/mL	16963.84 pg/mL	11440.66 pg/mL	0.00 pg/mL
